The subject of assay [1] is N-cadherin. Put plainly: Neurite outgrowth of rat neurons on monolayers of 3T3 cells expressing N-cadherin. The assay is classed as cell-based. The note with it: for Percent Inhibition of Neurite Outgrowth on 3T3 Cells Expressing N-cadherin: rat neurons, 20 hours. The procedure:
(§1) Neurons were cultured on monolayers of 3T3 cells transfected with cDNA encoding N-cadherin essentially as described by Doherty and Walsh, Curr. Op. Neurobiol. 4:49-55, 1994; Williams et al., Neuron 13:583-594, 1994; Hall et al., Cell Adhesion and Commun. 3:441-450, 1996; Doherty and Walsh, Mol. Cell. Neurosci. 8:99-111, 1994; Safell et al., Neuron 18:231-242, 1997. Briefly, monolayers of control 3T3 fibroblasts and 3T3 fibroblasts that express N-cadherin were established by overnight culture of 80,000 cells in individual wells of an 8-chamber well tissue culture slide. 3000 cerebellar neurons isolated from post-natal day 3 mouse brains were cultured for 18 hours on the various monolayers in control media (SATO/2% FCS), or media supplemented with various concentrations of the test peptide to be evaluated. The cultures were then fixed and stained for GAP43 which specifically binds to the neurons and their neurites. The length of the longest neurite on each GAP43 positive neuron was then measured by computer assisted morphometry. For each data point, measurements were made from 100-160 neurons, and the given values show the mean +/− the standard error of the mean.
(§2) The ability of different modulating agents to inhibit neurite outgrowth was also evaluated. […] The peptides were tested at different concentrations. Rat neurons were grown for 20 hours on monolayers of either 3T3 cells, or 3T3 cells expressing N-cadherin. The cultures were then fixed, and the mean neurite length was determined by making measurements on at least 150 neurons for each treatment. The results are presented as the percentage inhibition of neurite outgrowth over 3T3 cells expressing N-cadherin.
Similar experiments, illustrated in Table III, were performed to evaluate the effect of various cyclic peptide modulating agents derived from EC1 of human N-cadherin on neurite outgrowth.
(§3) To further evaluate the specificity of these peptide modulating agents, inhibition of neurite outgrowth was assessed, at 100 μg/ml, on monolayers of 3T3 cells transfected with various molecules responsible for neurite outgrowth. The results, shown in Table IV, illustrate a high level of specificity for N-cadherin mediated neurite outgrowth.
Further experiments were performed as described above to assess the activity of peptide modulating agents derived from EC4 of human N-cadherin.

Assay [2] deals with T1, L1 (Homo sapiens, UniProt P32004).
T1 construct: expressed in transfected cells; host or cells: 3T3 cells
Description: Neurite outgrowth over 3T3 cells transfected with L1. The format is cell-based, rat. The note with it: 100 μg/ml. The method, then: as §2, §3

Assay [3] deals with T2, NCAM (Homo sapiens, UniProt P13591).
T2 construct: expressed in transfected cells; host or cells: 3T3 cells
Description: Neurite outgrowth over 3T3 cells transfected with NCAM. The note with it: 100 μg/ml. The format is cell-based, rat. The method, then: as §2, §3

Assay [4] concerns the target T1, L1. Description: Neurite outgrowth of mouse cerebellar neurons on monolayers of 3T3 cells expressing L1. The format is cell-based. The note with it: 250 μg/ml; FIG. 6. The procedure:
as §1, with “For each data point, measurements were made from 100-160 neurons, and the given values show the mean +/− the standard error of the mean.” left out
(§4) The mean neurite length was further measured for neurons cultured on monolayers of 3T3 cells, 3T3 cells expressing N-cadherin, 3T3 cells expressing NCAM, and 3T3 cells expressing L1 in media containing the linear peptide H-WLKIDPVNGQI-OH (SEQ ID NO:13; designated N-CAD-CHD2) at a concentration of 250 μg/ml. […]

The next assay relates to N-cadherin-Fc chimera. Description: Binding of peptide to flow cell coated with N-cadherin-Fc chimera (human IgG1 control subtracted). The note with it: 250, 500 or 1000 μg/ml, FIG. 7. From the text: As noted above, native HAV-BM sequences, as well as analogues and mimetics thereof, bind to a classical cadherin, preferably within or near an HAV sequence, and modulate a cadherin-mediated response. The ability to bind to a cadherin sequence may generally be evaluated using any binding assay known to those of ordinary skill in the art. For example, a Pharmacia Biosensor machine may be used, as discussed in Jonsson et al., Biotechniques 11:520-27, 1991. A specific example of the technology that measures the interaction of peptides with molecules can be found in Williams et al., J. Biol. Chem. 272:8539-8545, 1997. Real-time BIA (Biomolecular Interaction Analysis) uses the optical phenomenon surface plasmon resonance to monitor biomolecular interactions. […] Binding to the chip is measured in real-time in arbitrary units of resonance (RU). […]
To determine binding, test analytes (e.g., cadherin peptides, such as HAV-containing peptides) may be placed in running buffer and passed simultaneously over test and control flow cells. […] Specific binding to the derivatized sensor chips may be determined automatically by the system by subtraction of […] flow cell responses. […]

Assay [5] deals with N-cadherin. Description: Neurite outgrowth of mouse cerebellar neurons on monolayers of 3T3 cells expressing N-cadherin. The format is cell-based. The text has this: Within a representative neurite outgrowth assay, neurons may be cultured on a monolayer of cells (e.g., 3T3 fibroblasts) that express N-cadherin. […] For example, neurons may be cultured on monolayers of 3T3 cells transfected with cDNA encoding N-cadherin essentially as described by Doherty and Walsh, Curr. Op. Neurobiol. 4:49-55, 1994; Williams et al., Neuron 13:583-594, 1994; Hall et al., Cell Adhesion and Commun. 3:441-450, 1996; Doherty and Walsh, Mol. Cell. Neurosci. 8:99-111, 1994; and Safell et al., Neuron 18:231-242, 1997. Briefly, monolayers of control 3T3 fibroblasts and 3T3 fibroblasts that express N-cadherin may be established by overnight culture of 80,000 cells in individual wells of an 8-chamber well tissue culture slide. […] The length of the longest neurite on each GAP43 positive neuron may be measured by computer assisted morphometry.
Neurons were cultured on monolayers of 3T3 cells transfected with cDNA encoding N-cadherin essentially as described by Doherty and Walsh, Curr. […] 3000 cerebellar neurons isolated from post-natal day 3 mouse brains were cultured for 18 hours on the various monolayers in control media (SATO/2% FCS), or media supplemented with various concentrations of the test peptide to be evaluated. […] The length of the longest neurite on each GAP43 positive neuron was then measured by computer assisted morphometry. […]

The target of assay [6] is T2, NCAM. Description: Neurite outgrowth of mouse cerebellar neurons on monolayers of 3T3 cells expressing NCAM. The format is cell-based. The note with it: 250 μg/ml; FIG. 6. The procedure:
as §1, with “For each data point, measurements were made from 100-160 neurons, and the given values show the mean +/− the standard error of the mean.” left out
as §4

The subject of another assay is FGFR. Put plainly: Neurite outgrowth over 3T3 cells transfected with FGFR. The format is cell-based, rat. The note with it: 100 μg/ml. The method, then:
as §2, §3

Assay [7] concerns human ovarian cancer cells (SKOV3). Description: Disruption of tumor cell adhesion in SKOV3 monolayer cultures. The assay is classed as cell-based. The note with it: 1 mg/mL, 24 hours; FIG. 8B. The text has this:
Within certain cell adhesion assays, the addition of a modulating agent to cells that express a cadherin results in disruption of cell adhesion. A “cadherin-expressing cell,” as used herein, may be any type of cell that expresses at least one cadherin on the cell surface at a detectable level, using standard techniques such as immunocytochemical protocols (e.g., Blaschuk and Farookhi, Dev. Biol. 136:564-567, 1989). Cadherin-expressing cells include endothelial, epithelial and/or cancer cells. For example, such cells may be plated under standard conditions that, in the absence of modulating agent, permit cell adhesion. In the presence of modulating agent (e.g., 500 μg/mL), disruption of cell adhesion may be determined visually within 24 hours, by observing retraction of the cells from one another.
Monolayer cultures of human ovarian cancer cells (SKOV3) were grown in the presence and absence of the peptide N-Ac-INPISGQ-NH2 (SEQ ID NO:22).

Setting [8] is: 3 μg/ml, cyclic peptides, Table III.
Where [9] appears, read: 10 μg/ml, cyclic peptides, Table III.
Where [10] appears, read: 33 μg/ml, cyclic peptides, Table III.
Setting [11] is: 100 μg/ml, cyclic peptides, Table III.
Where [12] appears, read: 11 μg/ml, EC4-derived peptides, Table V.

T1 sequence (P32004 20-1257): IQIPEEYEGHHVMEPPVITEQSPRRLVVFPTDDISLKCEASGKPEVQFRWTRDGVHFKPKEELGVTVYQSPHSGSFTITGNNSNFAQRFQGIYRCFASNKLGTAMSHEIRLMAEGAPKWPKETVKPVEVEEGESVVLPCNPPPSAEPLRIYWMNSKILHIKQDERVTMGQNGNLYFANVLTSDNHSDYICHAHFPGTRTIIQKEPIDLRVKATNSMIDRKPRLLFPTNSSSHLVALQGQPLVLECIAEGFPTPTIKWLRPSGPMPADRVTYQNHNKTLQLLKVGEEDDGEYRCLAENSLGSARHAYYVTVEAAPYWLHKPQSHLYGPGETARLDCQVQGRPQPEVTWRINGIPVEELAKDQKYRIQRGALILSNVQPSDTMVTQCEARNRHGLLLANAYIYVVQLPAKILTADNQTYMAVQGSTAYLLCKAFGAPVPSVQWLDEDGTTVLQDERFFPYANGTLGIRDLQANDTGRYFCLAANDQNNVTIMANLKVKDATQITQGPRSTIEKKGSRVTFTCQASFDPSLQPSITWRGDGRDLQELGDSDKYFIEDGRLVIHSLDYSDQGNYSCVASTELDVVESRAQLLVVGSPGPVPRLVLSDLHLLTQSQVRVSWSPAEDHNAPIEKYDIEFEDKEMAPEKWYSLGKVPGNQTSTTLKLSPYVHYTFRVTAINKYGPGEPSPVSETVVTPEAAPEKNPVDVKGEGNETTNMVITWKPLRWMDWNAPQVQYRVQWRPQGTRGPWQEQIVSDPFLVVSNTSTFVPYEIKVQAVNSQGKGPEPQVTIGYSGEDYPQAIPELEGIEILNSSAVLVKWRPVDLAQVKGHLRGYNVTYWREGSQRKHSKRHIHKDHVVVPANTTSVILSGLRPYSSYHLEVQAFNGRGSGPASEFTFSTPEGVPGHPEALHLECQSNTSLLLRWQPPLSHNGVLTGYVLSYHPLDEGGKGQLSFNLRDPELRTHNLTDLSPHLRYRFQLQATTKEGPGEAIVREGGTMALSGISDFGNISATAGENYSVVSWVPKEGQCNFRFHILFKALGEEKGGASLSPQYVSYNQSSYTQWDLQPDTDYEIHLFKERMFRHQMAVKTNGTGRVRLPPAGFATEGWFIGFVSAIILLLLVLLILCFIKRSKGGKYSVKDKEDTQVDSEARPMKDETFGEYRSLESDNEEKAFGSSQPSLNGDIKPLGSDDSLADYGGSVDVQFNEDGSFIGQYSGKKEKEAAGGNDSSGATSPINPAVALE
T2 sequence (P13591 20-858, species assumed): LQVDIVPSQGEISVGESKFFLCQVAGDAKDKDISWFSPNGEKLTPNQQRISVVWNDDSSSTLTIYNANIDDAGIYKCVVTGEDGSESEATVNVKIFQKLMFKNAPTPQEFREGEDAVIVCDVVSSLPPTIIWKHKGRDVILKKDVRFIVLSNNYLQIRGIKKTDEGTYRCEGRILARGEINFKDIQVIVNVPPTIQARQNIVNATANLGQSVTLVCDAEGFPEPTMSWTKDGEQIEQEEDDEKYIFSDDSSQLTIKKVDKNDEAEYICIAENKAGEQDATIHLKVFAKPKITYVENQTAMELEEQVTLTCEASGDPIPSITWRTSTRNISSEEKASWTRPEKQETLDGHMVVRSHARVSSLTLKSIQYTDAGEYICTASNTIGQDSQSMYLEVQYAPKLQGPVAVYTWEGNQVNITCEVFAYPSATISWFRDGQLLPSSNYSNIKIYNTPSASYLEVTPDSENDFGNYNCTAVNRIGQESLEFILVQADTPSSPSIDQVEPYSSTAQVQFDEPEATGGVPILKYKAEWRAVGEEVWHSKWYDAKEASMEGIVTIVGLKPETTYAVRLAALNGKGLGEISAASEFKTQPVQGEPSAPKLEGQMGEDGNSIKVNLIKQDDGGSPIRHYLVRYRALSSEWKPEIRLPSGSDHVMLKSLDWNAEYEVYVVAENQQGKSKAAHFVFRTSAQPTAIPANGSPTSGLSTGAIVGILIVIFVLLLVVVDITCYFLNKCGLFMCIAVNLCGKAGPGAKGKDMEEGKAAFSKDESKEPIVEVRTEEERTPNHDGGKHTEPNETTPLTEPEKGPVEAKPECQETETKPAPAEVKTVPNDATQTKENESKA

The term EC50 denotes the concentration giving half of the maximal effect. As to “Ac-CINPIC-NH2 (cysteine pairing not given here)”, the “Percent Inhibition of Neurite Outgrowth” value stood at 7.5 ± 3.2% with N-cadherin [1] (setting [8]), 31.5 ± 7.5% in the assay on N-cadherin [1] (setting [9]), 56.2 ± 6.9% in the assay with N-cadherin [1] (setting [10]) and 94.5 ± 10.5% in the assay with N-cadherin [1] (setting [11]). Besides, in the assay with N-cadherin [1] (100 μg/ml, Table IV), the “Percent Inhibition of Neurite Outgrowth over 3T3 Cells Expressing N-cadherin” value came to 94.5 ± 10.5%. In the assay on N-cadherin [1] (cyclic peptides, Table III), the EC50 turned out to be 38.2 µM. Moreover, the “Percent Inhibition of Neurite Outgrowth over 3T3 Cells Expressing L1” value at L1 [2] worked out at 7.8 ± 3.8%. Also, the “Percent Inhibition of Neurite Outgrowth over 3T3 Cells Expressing NCAM” value at NCAM [3] is recorded as 13.7 ± 7.1%.

Turning to “Ac-CINPISC-NH2 (cysteine pairing not given here)”, the “Percent Inhibition of Neurite Outgrowth” value with N-cadherin [1] (setting [9]) came out at 21.8 ± 1.2%; in the assay with N-cadherin [1] (setting [10]) it was 39.5 ± 4.3%; with N-cadherin [1] (setting [11]), 73.4 ± 2.2%. The same substance registered an EC50 with N-cadherin [1] (cyclic peptides, Table III) of 38.1 µM.

As for H-WLKIDPVNGQI-OH, the “Inhibition of neurite outgrowth on 3T3 cells expressing L1” value with L1 [4] is “Only neurite outgrowth on 3T3 cells expressing N-cadherin was inhibited”. Moreover, the “Binding to N-cadherin-Fc chimera coated flow cell” value with N-cadherin-Fc chimera is recorded as “association of the peptide to the flow cell coated with the N-cadherin Fc chimera”. In the assay on N-cadherin [5] (250 μg/ml, FIG. 6), the “Inhibition of neurite outgrowth on 3T3 cells expressing N-cadherin” value is reported as “inhibited”. In addition, the “Inhibition of the N-cadherin neurite outgrowth response” value in the assay with N-cadherin [5] (125 and 250 μg/ml, FIG. 5) was “fully inhibited”. In the assay with NCAM [6], the “Inhibition of neurite outgrowth on 3T3 cells expressing NCAM” value is “Only neurite outgrowth on 3T3 cells expressing N-cadherin was inhibited”.

In the case of “N-Ac-CIDPVNC-NH2 (also: cyclic, type of ring not given here) [cyclic peptide comprising IDPVN, from EC4 of human N-cadherin]”, the “Percent Inhibition of Neurite Outgrowth” value in the assay with N-cadherin [1] (setting [12]) is reported as 15.4 ± 8.9%.

Regarding N-Ac-CINPC-NH2, the “Percent Inhibition of Neurite Outgrowth” value with N-cadherin [1] (setting [8]) was 17.4 ± 5.7%; with N-cadherin [1] (setting [9]) it was 51.9 ± 2.5%; with N-cadherin [1] (setting [10]), 71.0 ± 6.5%; in the assay with N-cadherin [1] (setting [11]) it was 98.1 ± 8.2%. The same substance gave an EC50 in the assay on N-cadherin [1] (cyclic peptides, Table III) of 14.3 µM.

Consider “N-Ac-IDPVNGQ-NH2 [peptide derived from EC4 of human N-cadherin]”, for which the “Percent Inhibition of Neurite Outgrowth” value with N-cadherin [1] (setting [12]) was 0.6 ± 10.0%.

As for “N-Ac-INAISGQ-NH2 [control peptide with change in a specific amino acid]”, the “Percent Inhibition of Neurite Outgrowth on 3T3 Cells Expressing N-cadherin” value with N-cadherin [1] (33 μg/ml) was 12.3 ± 6.2%.

In the case of “N-Ac-INPISGQ-NH2 [linear peptide derived from EC1 of human N-cadherin]”, the “Percent Inhibition of Neurite Outgrowth on 3T3 Cells Expressing N-cadherin” value with N-cadherin [1] (3 μg/ml) is 19.5 ± 4.3%; in the assay on N-cadherin [1] (10 μg/ml), 47.8 ± 4.1%; with N-cadherin [1] (33 μg/ml), 73.0 ± 4.6%. In addition, the “Percent Inhibition of Neurite Outgrowth over 3T3 Cells Expressing L1” value with L1 [2] came out at 0.3 ± 1.8%. Further, the “Percent Inhibition of Neurite Outgrowth over 3T3 Cells Expressing FGFR” value in the assay with FGFR is 1.9 ± 5.1%. Further, the “Percent Inhibition of Neurite Outgrowth over 3T3 Cells Expressing NCAM” value in the assay with NCAM [3] was 6.2 ± 3.0%. The “Disruption of SKOV3 cell adhesion (morphology)” value in assay [7] is “retract from one another and round-up”.

The record behind these values is patent US20070203057A1, “COMPOUNDS AND METHODS FOR MODULATING ADHESION MOLECULE FUNCTION” (ADHEREX TECHNOLOGIES, INC., priority 1998, published 2007).
